According to PubChem BioAssay AID844 (SRMLSC, 2007):
Active and inactive are the calls of the source. The rule behind the calls is not given here.

Tested on: MRP1 cells, doxorubicin viability shift, 10 uM compound
Test: viability protection against doxorubicin, MRP-1 line – cell-based, doxorubicin EC50 shift, dose response (AID 844)
Details: for EC50: measured here: doxorubicin EC50 with compound

`COc1ccc(N2C(=O)CC(N3CCC(O)(c4cccc(C(F)(F)F)c4)CC3)C2=O)cc1` (stereo not given) was tested, and the fold increase in Dox EC50 was 0.89 (inactive) and the EC50 was 4.82 µM.
For `COc1ccc(NS(=O)(=O)c2cc(NC(=O)CNC(=O)c3ccc(C)s3)ccc2Cl)cc1`, the fold increase in Dox EC50 was 1.44 (inactive) and the EC50 was 7.78 µM.
In the case of `COC(=O)C1=C(C)NC(C)=C(C(=O)OC)C1c1ccccc1OCc1c(C)no[n+]1[O-]`, the fold increase in Dox EC50 is reported as 0.98 (inactive) and the EC50 is reported as 5.32 µM.
In the case of `N#Cc1ccc(N2C(=O)[C@@H]3C(C(=O)c4ccc5ccccc5n4)=NN[C@@H]3C2=O)cc1`, the fold increase in Dox EC50 is reported as 1.3 (inactive) and the EC50 is reported as 7 µM.
With `Cc1n[nH]c(=S)n(/N=C/c2ccccn2)c1=O` the fold increase in Dox EC50 was 0.91 (inactive) and the EC50 was 4.9 µM.
For `N#CCSc1nc2cc(C(=O)N3CCC(C(N)=O)CC3)ccc2c2nc3ccccc3n12`, the fold increase in Dox EC50 was 0.86 (inactive) and the EC50 was 4.62 µM.
For `Cc1nnc(NC(=O)c2ccco2)s1`, the fold increase in Dox EC50 was 1.16 (inactive) and the EC50 was 6.28 µM.
In the case of `COC(=O)N/N=C/c1ccc(-c2ccc(Cl)c(Cl)c2)o1`, the fold increase in Dox EC50 is reported as 0.67 (inactive) and the EC50 is reported as 3.62 µM.
For `CNC(=S)Nc1ccc(C23CC4CC(CC(C4)C2)C3)cc1`, the fold increase in Dox EC50 was 0.7 (inactive) and the EC50 was 3.78 µM.
For `CCCCCn1c(CN2CCCCC2C)nc2c1c(=O)n(C)c(=O)n2C` (stereo not given), the fold increase in Dox EC50 was 0.16 (inactive) and the EC50 was 0.883 µM.
`Cc1nc(=O)c(-c2ccccc2)c(C)n1-c1ccc(O)cc1` was tested, and the fold increase in Dox EC50 was 1.32 (inactive) and the EC50 was 7.13 µM.
For `c1ccc(-c2ccc(-c3nc(-c4ccncc4)no3)cc2)cc1`, the fold increase in Dox EC50 was 0.41 (inactive) and the EC50 was 2.21 µM.
`Cc1c(C(=O)Nc2nnc(C(F)(F)F)s2)oc2ccccc12` gave a fold increase in Dox EC50 of 2.05 and an EC50 of 11 µM.
`N#Cc1nc(COc2ccc(F)cc2)oc1N1CCC(Cc2ccccc2)CC1` was tested, and the fold increase in Dox EC50 was 0.99 (inactive) and the EC50 was 5.35 µM.
With `S=C(NCc1ccccn1)Nc1ccccc1Cl` the fold increase in Dox EC50 was 1.14 (inactive) and the EC50 was 6.15 µM.
In the case of `Cc1noc(/C=C/N(C)C)c1S(=O)(=O)N1CCCC(C(=O)NCc2cccs2)C1` (stereo not given), the fold increase in Dox EC50 is reported as 1.32 (inactive) and the EC50 is reported as 7.11 µM.
`COc1ccc(NC(=O)c2c(F)cccc2F)cc1S(=O)(=O)Nc1ccc(Br)cc1` was tested, and the fold increase in Dox EC50 was 0.71 (inactive) and the EC50 was 3.86 µM.
In the case of `Oc1c(C(c2ccccc2)N2CCc3ccccc3C2)sc2ncnn12` (stereo not given), the fold increase in Dox EC50 is reported as 0.45 (inactive) and the EC50 is reported as 2.42 µM.
`CC(CCc1ccccc1)NC(=O)CN1CCN(Cc2ccc(Cl)cc2)C1=O` (stereo not given) was tested, and the fold increase in Dox EC50 was 1.03 (inactive) and the EC50 was 5.58 µM.
In the case of `CCC(C)Nc1ncnc2c1cnn2Cc1ccc(Cl)cc1` (stereo not given), the fold increase in Dox EC50 is reported as 0.84 (inactive) and the EC50 is reported as 4.55 µM.
In the case of `CCCCOC(=O)Nc1ccc(C(C)C)cc1`, the fold increase in Dox EC50 is reported as 0.78 (inactive) and the EC50 is reported as 4.21 µM.
`CCC1SC2=NC(C)=C(C(=O)OCCOC)C(c3ccc(C(=O)OC)cc3)N2C1=O` (stereo not given) was tested, and the fold increase in Dox EC50 was 0.92 (inactive) and the EC50 was 4.98 µM.
`Fc1cccc(-c2cc3nc(-c4ccccc4)cc(N4CCC5(CC4)OCCO5)n3n2)c1` was tested, and the fold increase in Dox EC50 was 0.56 (inactive) and the EC50 was 3.04 µM.
In the case of `Cc1cccc(CC2S/C(=N/c3ccccn3)NC2=O)c1` (stereo not given), the fold increase in Dox EC50 is reported as 1.15 (inactive) and the EC50 is reported as 6.22 µM.
In the case of `CCCCN(C(=O)Cc1cccs1)c1nnc(-c2cccnc2)s1`, the fold increase in Dox EC50 is reported as 0.86 (inactive) and the EC50 is reported as 4.65 µM.
`Cc1cc(C(=O)N/N=C/c2cc(Br)ccc2OC(=O)c2ccccc2)n[nH]1` was tested, and the fold increase in Dox EC50 was 0.15 (inactive) and the EC50 was 0.808 µM.
`c1coc(C2Nc3cccc4cccc(c34)N2)c1` was tested, and the fold increase in Dox EC50 was 0.21 (inactive) and the EC50 was 1.13 µM.
`CCOC(=O)c1cnn(-c2ccccn2)c1N` was tested, and the fold increase in Dox EC50 was 0.92 (inactive) and the EC50 was 4.94 µM.
In the case of `O=C1c2cccc(OCc3ccc(F)cc3)c2CCN1Cc1ccc(F)cc1`, the fold increase in Dox EC50 is reported as 1.08 (inactive) and the EC50 is reported as 5.82 µM.
`COc1ccc(-c2nnc(SC(C)C(=O)Nc3cccc(Cl)c3)o2)cc1` (stereo not given) was tested, and the fold increase in Dox EC50 was 0.74 (inactive) and the EC50 was 4 µM.
